# Reference: article PMC4961623 (Journal of neurochemistry, 2016)
# Target: T1, sterol carrier protein-2 (SCP-2) (Homo sapiens, UniProt P22307)
# T1 sequence (P22307 425-547): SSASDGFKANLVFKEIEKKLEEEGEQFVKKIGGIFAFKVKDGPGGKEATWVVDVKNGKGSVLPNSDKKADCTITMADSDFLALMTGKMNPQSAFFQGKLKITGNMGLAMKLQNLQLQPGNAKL
# Assay: fluorescent cis-parinaric acid displacement assay
# Format: binding
smiles,measurement,value
"CCCCC/C=C\C/C=C\C/C=C\C/C=C\CCCC(=O)OC(CO)CO [2-AG, 2-arachidonoylglycerol]",Ki,0.2 ± 0.01 µM
"CCCCC/C=C\C/C=C\C/C=C\C/C=C\CCCC(=O)NCCO [AEA, arachidonoylethanolamide]",Ki,0.29 ± 0.01 µM
